The results in this text go back to patent US7704924B2, “Library of compounds comprising pyrrolobenzodiazepine moieties” (Spirogen Limited, priority 1998, dated 2010).

The experiment deals with U937 chronic human histiocytic leukemia cells or K562 human chronic myeloid leukemia cells. In words: MTT assay of the 27 member PBD library synthesised on crowns (photolytic cleavage, continuous incubation). It counts as cell-based. The conditions noted are these: 4 days, with or without UVA (365 nm, 2 h) not given. The protocol: The ability of agents to inhibit the growth of U937 chronic human histiocytic leukemia cells or K562 human chronic myeloid leukemia cells in culture was measured using the MTT assay (Mosmann, 1983). This is based on the ability of viable cells to reduce a yellow soluble tetrazolium salt, 3-(4,5-dimethylthiazolyl)-2,5-diphenyltetrazolium bromide (MTT; Sigma Chemical Co.), to an insoluble purple formazan precipitate. Following drug treatment, the cells were transferred to 96-well microtitre plates with 10^4 cells per well and 8 wells per sample. The plates were incubated at 37° C. in a humidified atmosphere containing 5% CO2. Following incubation of the plates for 4 days (to allow control cells to increase in number by 10-fold), 20 μL of a 5 mg/mL solution of MTT in phosphate-buffered saline was added to each well and the plates incubated further for 5 hours. […] The optical density was then read at a wavelength of 550 nm on a Titertek Multiscan ELISA plate reader and the dose-response curve constructed. […]
Following incubation of the plates for 4 days (to allow control cells to increase in number by 10-fold), 20 μL of a 5 mg/mL solution of MTT in phosphate-buffered saline was added to each well and the plates further incubated for 5 hours. […] The optical density was then read at a wavelength of 550 nm on a Titertek Multiscan ELISA plate reader and the dose-response curve constructed.
(Formazan colour is commonly taken as a measure of viable cells.)

Turning to `COc1cc2c(cc1OCc1ccccc1)N=C[C@@H]1CCCN1C2=O` [Benzyl DC-81, reference compound], the “% Control at 0.3 μM” value worked out at 47.4%.
